Laboratory results: patent US9428496B2, “Thiazolamine derivative and use thereof as anti-picornaviral infection medicament” (Institute of Pharmacology and Toxicology Academy of …, priority 2010, dated 2016)
In brackets after ≈: the same amount, converted by molar mass. Where two headings read alike, the source gives them in different places.

Legend:
enterovirus Cox A16 = experiment: microbe, parasite or virus in culture; type: cell-based; conditions: for IC50: Enterovirus, read-out: CoxA16 IC50; for CoxA16 SI: CoxA16, Vero cells
Description: (§1) Anti-picornaviral activity of the compounds of the present invention in in vitro model Test item: activity screening of compounds against enteroviruses EV71 and Cox A16 Test principle: using Vero cells as virus host, the cytopathic effect of Vero cells induced by the inhibition of compounds against enteroviruses EV71 and Cox A16 was measured.
(§2) 1. Virus strains: enteroviruses EV71 (Shenzhen 98) and Cox A16, passaging in the laboratory.
(§3) Test Method: Vero cells were incubated in a 96-well culture plate. After 24 hours, they were infected with EV71 and Cox A16 by adsorption for 2 hours. After discarding the virus solution, maintenance solutions containing different concentrations of samples and positive controls were added, and, at the same time, cell control wells and virus control wells were set. […] The half inhibitory concentrations (IC50) of the samples against EV71 and Cox A16 were respectively calculated according to the Reed-Muench method.

[1] = tested on: enterovirus EV71 (Shenzhen 98); experiment: Inhibition of cytopathic effect (CPE) induced by EV71 in Vero cells; type: cell-based; conditions: for IC50 / EV71 IC50: CPE in Vero cells, Reed-Muench method; for EV71 SI: EV71, Vero cells
Description: as §1, §2, §3

Vero cells = experiment: Toxicity of compounds to the Vero host cells (TC50, TC0); type: cell-based
[2] = CPE in Vero cells, Reed-Muench method

Molecule | IC50 (enterovirus Cox A16; [2]) | CoxA16 SI (enterovirus Cox A16) | IC50 [1] | TC0 (Vero cells; Vero cells) | TC50 (Vero cells; Vero cells) | melting point | CoxA16 IC50 (enterovirus Cox A16; [2]) | EV71 IC50 [1] | EV71 SI [1] | TC0 (Vero cells) | TC50 (Vero cells) | IC50 (enterovirus Cox A16; Vero)
CCc1ccc(OCCCCCN2CCN(c3nccs3)CC2)cc1 [Example 4, 2-{4-[5-(4-ethylphenoxy)pentyl]piperazin-1-yl}thiazole] | 1.97 µg/mL (≈ 5.48 µM) | 6.3 | > 3.13 µg/mL | 3.13 µg/mL | 12.5 µg/mL (≈ 34.8 µM) | 125 to 127 °C | – | – | – | – | – | –
2-{4-[5-(4-tert-butylphenoxy)pentyl]piperazin-1-yl}thiazole hydrochloride [Example 22] | – | 4.0 | – | – | – | – | 6.25 µg/mL | 1.97 µg/mL | 12.7 | 12.5 µg/mL | 25.0 µg/mL | –
c1ccc(OCCCCCCN2CCN(c3nccs3)CC2)cc1 [Example 10, 2-[4-(6-phenoxyhexyl)piperazin-1-yl]thiazole] | 12.5 µg/mL (≈ 36.2 µM) | 2.0 | > 12.5 µg/mL | 12.5 µg/mL | 25.0 µg/mL (≈ 72.4 µM) | 37 to 39 °C | – | – | – | – | – | –
CC(C)c1ccc(OCCCCCCN2CCN(c3nccs3)CC2)cc1.Cl [Example 23, 2-{4-[6-(4-isopropylphenoxy)hexyl]piperazin-1-yl}thiazole hydrochloride] | 0.57 µg/mL | 34.8 | 1.97 µg/mL | 3.13 µg/mL | 19.84 µg/mL | 135 to 137 °C | – | – | 10.1 | – | – | –
NC(=O)c1ncn([C@@H]2O[C@H](CO)[C@@H](O)[C@H]2O)n1 [Con, ribavirin, reference compound] | – | – | 517 µg/mL (≈ 2120 µM) | 500.0 µg/mL | 2000 µg/mL (≈ 8190 µM) | – | – | – | – | – | – | 363 µg/mL (≈ 1490 µM)
2-{4-[5-(4-tert-butylphenoxy)pentyl]piperazin-1-yl}thiazole [Example 16] | – | 5.8 | – | 12.5 µg/mL | 25.0 µg/mL | – | 4.30 µg/mL | >12.5 µg/mL | – | – | – | –
Cc1ccc(OCCCCCCN2CCN(c3nccs3)CC2)cc1 [Example 8, 2-{4-[6-(4-methylphenoxy)hexyl]piperazin-1-yl}thiazole] | 4.96 µg/mL (≈ 13.8 µM) | 5.0 | > 12.5 µg/mL | 12.5 µg/mL | 25.0 µg/mL (≈ 69.5 µM) | 37 to 39 °C | – | – | – | – | – | –
CC(C)(C)c1ccc(OCCCCCN2CCN(c3nccs3)CC2)cc1 [Example 6, 2-{4-[5-(4-tert-butylphenoxy)pentyl]piperazin-1-yl}thiazole] | 1.57 µg/mL (≈ 4.05 µM) | 4.0 | > 3.13 µg/mL | 3.13 µg/mL | 6.25 µg/mL (≈ 16.1 µM) | 125 to 127 °C | – | – | – | – | – | –
Brc1ccc(OCCCCCN2CCN(c3nccs3)CC2)cc1.Cl [Example 18, 2-{4-[5-(4-bromophenoxy)pentyl]piperazin-1-yl}thiazole hydrochloride] | > 0.78 µg/mL | – | > 0.78 µg/mL | 0.78 µg/mL | 4.96 µg/mL | 221 to 223 °C | – | – | – | – | – | –
Cc1ccc(OCCCCCN2CCN(c3nccs3)CC2)cc1 [Example 7, 2-{4-[5-(4-methylphenoxy)pentyl]piperazin-1-yl}thiazole] | > 3.13 µg/mL | – | > 3.13 µg/mL | 3.13 µg/mL | 19.84 µg/mL (≈ 57.4 µM) | 125 to 127 °C | – | – | – | – | – | –
COc1ccc(OCCCCCCN2CCN(c3nccs3)CC2)cc1.Cl [Example 20, 2-{4-[6-(4-methoxyphenoxy)hexyl]piperazin-1-yl}thiazole hydrochloride] | > 3.13 µg/mL | – | > 3.13 µg/mL | 3.13 µg/mL | 63.0 µg/mL | 221 to 223 °C | – | – | – | – | – | –
Fc1ccc(OCCCCCN2CCN(c3nccs3)CC2)cc1 [Example 3, 2-{4-[5-(4-fluorophenoxy)pentyl]piperazin-1-yl}thiazole] | > 12.5 µg/mL | – | > 12.5 µg/mL | 12.5 µg/mL | 79.37 µg/mL (≈ 227 µM) | 42 to 44 °C | – | – | – | – | – | –
CCOc1ccc(OCCCCCN2CCN(c3nccs3)CC2)cc1 [Example 2, 2-{4-[5-(4-ethoxyphenoxy)pentyl]piperazin-1-yl}thiazole] | 1.97 µg/mL (≈ 5.25 µM) | 12.7 | 7.87 µg/mL (≈ 21 µM) | 12.5 µg/mL | 25.0 µg/mL (≈ 66.6 µM) | 79 to 81 °C | – | – | 3.2 | – | – | –
Fc1ccc(OCCCCCCN2CCN(c3nccs3)CC2)cc1 [Example 12, 2-{4-[6-(4-fluorophenoxy)hexyl]piperazin-1-yl}thiazole] | > 12.5 µg/mL | – | > 12.5 µg/mL | 12.5 µg/mL | 25.0 µg/mL (≈ 68.8 µM) | 58 to 60 °C | – | – | – | – | – | –
CCOc1ccc(OCCCCCCN2CCN(c3nccs3)CC2)cc1.Cl [Example 21, 2-{4-[6-(4-ethoxyphenoxy)hexyl]piperazin-1-yl}thiazole hydrochloride] | 3.13 µg/mL | 8.0 | 1.97 µg/mL | 3.13 µg/mL | 25.0 µg/mL | 222 to 224 °C | – | – | 12.7 | – | – | –
CC(C)c1ccc(OCCCCCN2CCN(c3nccs3)CC2)cc1 [Example 5, 2-{4-[5-(4-isopropylphenoxy)pentyl]piperazin-1-yl}thiazole] | 1.57 µg/mL (≈ 4.2 µM) | 4.0 | > 3.13 µg/mL | 3.13 µg/mL | 6.25 µg/mL (≈ 16.7 µM) | 128 to 130 °C | – | – | – | – | – | –
5-{4-[3-(4′-ethoxybiphenyl-4-oxy)pentyl]piperazin-1-yl}thiazole [Example 15] | – | >2.0 | – | – | – | – | 100 µg/mL | >200.0 µg/mL | – | >200.0 µg/mL | >200.0 µg/mL | –
Cl.c1ccc(OCCCCCN2CCN(c3nccs3)CC2)cc1 [Example 19, 2-[4-(5-phenoxypentyl)piperazin-1-yl]thiazole hydrochloride] | 12.5 µg/mL | 6.3 | > 12.5 µg/mL | 12.5 µg/mL | 79.37 µg/mL | 145 to 147 °C | – | – | – | – | – | –
Brc1ccc(OCCCCCN2CCN(c3nccs3)CC2)cc1 [Example 17, 2-{4-[5-(4-bromophenoxy)pentyl]piperazin-1-yl}thiazole] | > 0.78 µg/mL | – | > 0.78 µg/mL | 0.78 µg/mL | 4.96 µg/mL (≈ 12.1 µM) | 73 to 75 °C | – | – | – | – | – | –
CCc1ccc(OCCCCCCN2CCN(c3nccs3)CC2)cc1 [Example 9, 2-{4-[6-(4-ethylphenoxy)hexyl]piperazin-1-yl}thiazole] | 3.13 µg/mL (≈ 8.38 µM) | 2.0 | 1.97 µg/mL (≈ 5.27 µM) | 3.13 µg/mL | 6.25 µg/mL (≈ 16.7 µM) | 21 to 23 °C | – | – | 3.2 | – | – | –
CC(C)(C)c1ccc(OCCCCCCN2CCN(c3nccs3)CC2)cc1 [Example 11, 2-{4-[6-(4-tert-butylphenoxy)hexyl]piperazin-1-yl}thiazole] | 3.13 µg/mL (≈ 7.79 µM) | 2.0 | 1.57 µg/mL (≈ 3.91 µM) | 3.13 µg/mL | 6.25 µg/mL (≈ 15.6 µM) | 30 to 32 °C | – | – | 4.0 | – | – | –
COc1ccc(OCCCCCN2CCN(c3nccs3)CC2)cc1 [Example 1, 2-{4-[5-(4-methoxyphenoxy)pentyl]piperazin-1-yl}thiazole] | 25 µg/mL (≈ 69.2 µM) | 4.0 | 36.3 µg/mL (≈ 100 µM) | 50.0 µg/mL | 100.0 µg/mL (≈ 277 µM) | 83 to 85 °C | – | – | 2.8 | – | – | –
Brc1ccc(OCCCCCCN2CCN(c3nccs3)CC2)cc1 [Example 14, 2-{4-[6-(4-bromophenoxy)hexyl]piperazin-1-yl}thiazole] | 6.25 µg/mL (≈ 14.7 µM) | 5.0 | > 12.5 µg/mL | 12.5 µg/mL | 31.5 µg/mL (≈ 74.2 µM) | 66 to 68 °C | – | – | – | – | – | –
2-{4-[5-(4-tert-butylphenoxy)pentyl]piperazin-1-yl}thiazole [Example 13] | – | 3.2 | – | 12.5 µg/mL | 25.0 µg/mL | – | 7.87 µg/mL | >12.5 µg/mL | – | – | – | –
